ChEMBL document CHEMBL5625222, “Design, synthesis, and biological evaluation of 1,6-naphthyridine-2-one derivatives as novel FGFR4 inhibitors for the treatment of colorectal cancer” (Eur J Med Chem, 2023)
Activity calls are given as the source filed them.

What was measured:
[1] = Toxicity in BALB/c mouse xenografted with human HCT-116 cells assessed as change in kidney weight at 10 mg/kg,ip administrated for 2 weeks; assay type: organism-based; conditions: in vivo, 336 h
RKO [2] = test: Induction of cell cycle arrest in human RKO cells assessed as downregulation of CDC2 expression at 1.5 to 6 uM by immunoblotting analysis; assay type: functional, cell-based; conditions: dose 1.5-6 µM
HCT-116 [3] = test: Antitumor activity against human HCT-116 cells xenografted in BALB/c mouse assessed as upregulation of E-cad expression in tumor at 20 mg/kg,ip administrated for 2 weeks by Western blotting analysis; assay type: functional, organism-based
SW480 [4] = test: Induction of cell cycle arrest in human SW480 cells assessed as accumulation of cells at G2/M phase incubated for 48 hrs by propidium iodide staining based flow cytometry; assay type: functional
[5] = Antiproliferative activity against human Intestinal epithelial cell assessed as inhibition of cell growth incubated for 48 hrs by MTT assay; assay type: toxicity, cell-based; conditions: human intestinal epithelial cells
[6] = Toxicity in ICR mouse assessed as change in heart weight at 60 mg/kg,po administrated for 1 week; assay type: organism-based; conditions: in vivo, 168 h, time 1 weeks
RKO [7] = test: Antiproliferative activity against human RKO cells assessed as inhibition of cell growth incubated for 48 hrs by EdU staining method; assay type: functional, cell-based
[8] = Toxicity in BALB/c mouse xenografted with human HCT-116 cells assessed as histopathological change in kidney at 10 mg/kg,ip administrated for 2 weeks by hematoxylin and eosin staining based analysis; assay type: organism-based; conditions: in vivo, 336 h
RKO [9] = test: Anti-migration activity in human RKO cells assessed as change in FAK expression at 3 to 12 uM by Western blotting analysis; assay type: functional, cell-based; conditions: dose 3-12 µM
RKO [10] = test: Anti-migration activity in human RKO cells assessed as upregulation of E-cad expression by Western blotting analysis; assay type: functional, cell-based
SW480 [11] = test: Anti-migration activity in human SW480 cells assessed as downregulation of FAK phosphorylation by Western blotting analysis; assay type: functional, cell-based
[12] = biological target: Fibroblast growth factor receptor 1 (Homo sapiens, UniProt P11362); test: Inhibition of FGFR1 (unknown origin) kinase activity
SW480 [13] = test: Antiproliferative activity against human SW480 cells assessed as inhibition of cell growth incubated for 48 hrs by EdU staining method; assay type: functional, cell-based
HCT-116 [14] = test: Induction of apoptosis in human HCT-116 cells at 3 to 12 uM incubated for 48 hrs by Annexin V-FITC/PI staining based flow cytometric analysis relative to control; assay type: functional; conditions: dose 3-12 µM
[15] = Hepatotoxicity in ICR mouse assessed as change in serum ALT level at 20 mg/kg,po administrated for 1 week; assay type: toxicity, organism-based; conditions: in vivo, 168 h, time 1 weeks
HCT-116 [16] = test: Antitumor activity against human HCT-116 cells xenografted in BALB/c mouse assessed as downregulation of FAK phosphorylation in tumor at 20 mg/kg,ip administrated for 2 weeks by Western blotting analysis; assay type: functional, organism-based
[17] = Toxicity in BALB/c mouse xenografted with human HCT-116 cells assessed as change in serum creatinine level at 10 mg/kg,ip administrated for 2 weeks; assay type: organism-based; conditions: in vivo, 336 h
[18] = Hepatotoxicity in ICR mouse assessed as change in serum AST level at 60 mg/kg,po administrated for 1 week; assay type: toxicity, organism-based; conditions: in vivo, 168 h, time 1 weeks
HCT-116 [19] = test: Antitumor activity against human HCT-116 cells xenografted in BALB/c mouse assessed as change in cell morphology at 10 mg/kg,ip administrated for 2 weeks by hematoxylin and eosin staining based analysis; assay type: functional, organism-based
SW480 [20] = test: Induction of cell cycle arrest in human SW480 cells assessed as downregulation of CDC2 expression at 1.5 to 6 uM by immunoblotting analysis; assay type: functional, cell-based; conditions: dose 1.5-6 µM
HCT-116 [21] = test: Anti-migration activity in human HCT-116 cells assessed as change in FAK expression at 3 to 12 uM by Western blotting analysis; assay type: functional, cell-based; conditions: dose 3-12 µM
HCT-116 [22] = test: Induction of cell cycle arrest in human HCT-116 cells assessed as downregulation of cyclin B1 expression at 1.5 to 6 uM by immunoblotting analysis; assay type: functional, cell-based; conditions: dose 1.5-6 µM
[23] = Hepatotoxicity in ICR mouse assessed as change in serum AST level at 20 mg/kg,po administrated for 1 week; assay type: toxicity, organism-based; conditions: in vivo, 168 h, time 1 weeks
RKO [24] = test: Anti-migration activity in human RKO cells assessed as downregulation of FAK phosphorylation by Western blotting analysis; assay type: functional, cell-based
HCT-116 [25] = test: Anti-migration activity in human HCT-116 cells assessed as change in FAK distribution at 3 to 12 uM by immunofluorescence assay; assay type: functional, cell-based; conditions: dose 3-12 µM
[26] = Drug uptake in BALB/c mouse colon at 20 mg/kg,ip administrated for 2 hrs by LC-MS analysis; assay type: ADME, organism-based; conditions: in vivo
[27] = Toxicity in ICR mouse assessed as change in spleen weight at 60 mg/kg,po administrated for 1 week; assay type: organism-based; conditions: in vivo, 168 h, time 1 weeks
[28] = Toxicity in ICR mouse assessed as change in heart weight at 20 mg/kg,po administrated for 1 week; assay type: organism-based; conditions: in vivo, 168 h, time 1 weeks
RKO [29] = test: Induction of cell cycle arrest in human RKO cells assessed as downregulation of cyclin B1 expression at 1.5 to 6 uM by immunoblotting analysis; assay type: functional, cell-based; conditions: dose 1.5-6 µM
HCT-116 [30] = test: Antitumor activity against human HCT-116 cells xenografted in BALB/c mouse assessed as downregulation of N-cad expression in tumor at 10 mg/kg,ip administrated for 2 weeks by Western blotting analysis; assay type: functional, organism-based
[31] = Toxicity in BALB/c mouse xenografted with human HCT-116 cells assessed as change in lung weight at 20 mg/kg,ip administrated for 2 weeks; assay type: organism-based; conditions: in vivo, 336 h
[32] = Toxicity in BALB/c mouse xenografted with human HCT-116 cells assessed as change in serum AST level at 10 mg/kg,ip administrated for 2 weeks; assay type: organism-based; conditions: in vivo, 336 h
[33] = Toxicity in BALB/c mouse xenografted with human HCT-116 cells assessed as change in spleen weight at 10 mg/kg,ip administrated for 2 weeks; assay type: organism-based; conditions: in vivo, 336 h
[34] = Hepatotoxicity in ICR mouse assessed as change in serum creatinine level at 20 mg/kg,po administrated for 1 week; assay type: toxicity, organism-based; conditions: in vivo, 168 h, time 1 weeks
RKO [35] = test: cells; conditions: Homo sapiens, 48 h
Description: Antiproliferative activity against human RKO cells assessed as inhibition of cell growth incubated for 48 hrs by MTT assay

[36] = Toxicity in ICR mouse assessed as change in kidney weight at 20 mg/kg,po administrated for 1 week; assay type: organism-based; conditions: in vivo, 168 h, time 1 weeks
HCT-116 [37] = test: Antitumor activity against human HCT-116 cells xenografted in BALB/c mouse assessed as decrease in Ki67 expression in tumor tissue at ip administrated for 2 weeks by immunohistochemical analysis; assay type: functional, organism-based
HCT-116 [38] = test: cells; conditions: Homo sapiens, HCT-116, 48 h
Description: Antiproliferative activity against human HCT-116 cells assessed as inhibition of cell growth incubated for 48 hrs by MTT assay

RKO [39] = test: Anti-migration activity in human RKO cells assessed as change in FAK distribution at 3 to 12 uM by immunofluorescence assay; assay type: functional, cell-based; conditions: dose 3-12 µM
HCT-116 [40] = test: Antitumor activity against human HCT-116 cells xenografted in BALB/c mouse assessed as downregulation of N-cad expression in tumor at 20 mg/kg,ip administrated for 2 weeks by Western blotting analysis; assay type: functional, organism-based
[41] = Toxicity in BALB/c mouse xenografted with human HCT-116 cells assessed as change in serum AST level at 20 mg/kg,ip administrated for 2 weeks; assay type: organism-based; conditions: in vivo, 336 h
HCT-116 [42] = test: Anti-migration activity in human HCT-116 cells assessed as upregulation of E-cad expression by Western blotting analysis; assay type: functional, cell-based

Chain of Fibroblast growth factor receptor 1 (P11362 whole entry): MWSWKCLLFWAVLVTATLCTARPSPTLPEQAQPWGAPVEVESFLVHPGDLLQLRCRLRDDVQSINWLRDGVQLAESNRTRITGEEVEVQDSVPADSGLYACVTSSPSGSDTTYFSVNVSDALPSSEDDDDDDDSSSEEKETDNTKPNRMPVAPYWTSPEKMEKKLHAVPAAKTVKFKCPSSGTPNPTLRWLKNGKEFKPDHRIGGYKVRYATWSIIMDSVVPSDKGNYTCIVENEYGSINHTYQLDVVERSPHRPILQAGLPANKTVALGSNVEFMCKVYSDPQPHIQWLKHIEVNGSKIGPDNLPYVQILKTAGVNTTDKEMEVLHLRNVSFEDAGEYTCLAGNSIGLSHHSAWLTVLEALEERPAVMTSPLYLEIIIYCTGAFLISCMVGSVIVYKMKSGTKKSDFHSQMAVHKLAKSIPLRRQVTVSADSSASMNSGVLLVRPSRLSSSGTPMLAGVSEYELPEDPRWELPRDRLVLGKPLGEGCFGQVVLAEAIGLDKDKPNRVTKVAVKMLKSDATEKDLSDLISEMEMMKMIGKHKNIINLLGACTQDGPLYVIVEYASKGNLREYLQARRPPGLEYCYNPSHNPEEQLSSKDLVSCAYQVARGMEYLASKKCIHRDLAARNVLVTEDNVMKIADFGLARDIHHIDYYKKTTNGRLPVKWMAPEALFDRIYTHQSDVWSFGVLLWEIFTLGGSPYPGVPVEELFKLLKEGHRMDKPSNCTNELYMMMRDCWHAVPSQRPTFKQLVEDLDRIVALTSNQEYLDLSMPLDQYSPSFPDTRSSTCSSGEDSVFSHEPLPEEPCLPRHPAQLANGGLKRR

C=CC(=O)NCCCn1c(=O)c(-c2c(Cl)c(OC)cc(OC)c2Cl)cc2cnc(Nc3c(C)cccc3NC(=O)C=C)cc21
active: Activity (RKO [2]) | Activity (HCT-116 [3]) | Activity (SW480 [4]) Dose-Dependent Effect | Activity (RKO [7]) Dose-Dependent Effect | Activity (RKO [10]) Dose-Dependent Effect | Activity (SW480 [11]) Dose-Dependent Effect | Activity (SW480 [13]) Dose-Dependent Effect | Activity (HCT-116 [16]) | Activity (HCT-116 [19]) | Activity (SW480 [20]) | Activity (HCT-116 [22]) | Activity (RKO [24]) Dose-Dependent Effect | Activity (HCT-116 [25]) | Activity (RKO [29]) | Activity (HCT-116 [30]) | Activity (HCT-116 [37]) Dose-Dependent Effect | Activity (RKO [39]) | Activity (HCT-116 [40]) | Activity (HCT-116 [42]) Dose-Dependent Effect
4.24 µM: IC50 (HCT-116 [38])
11.6 µM: IC50 (RKO [35])
inactive: Activity (RKO [9]) | Activity (HCT-116 [21])
0.64%: Activity (HCT-116 [14])
Non-Toxic: Activity [1] | Activity [6] | Activity [8] | Activity [15] | Activity [17] | Activity [18] | Activity [23] | Activity [27] | Activity [28] | Activity [31] | Activity [32] | Activity [33] | Activity [34] | Activity [36] | Activity [41]
23.8 µM: IC50 at 48 h [5]
0.643 µM: IC50 [12]
Active: Drug uptake [26]
